Test results published in article PMC6010021, “Mono- and di-thiocarbamate inhibition studies of the δ-carbonic anhydrase TweCAδ from the marine diatom Thalassiosira weissflogii” (Journal of Enzyme Inhibition and Medicinal Chemistry, 2018).

Target: T1, TweCAδ (Conticribra weissflogii, UniProt Q5U9J1)
T1 construct: gene ca1; recombinant protein produced as reported earlier by the group
T1 sequence (Q5U9J1 1-281): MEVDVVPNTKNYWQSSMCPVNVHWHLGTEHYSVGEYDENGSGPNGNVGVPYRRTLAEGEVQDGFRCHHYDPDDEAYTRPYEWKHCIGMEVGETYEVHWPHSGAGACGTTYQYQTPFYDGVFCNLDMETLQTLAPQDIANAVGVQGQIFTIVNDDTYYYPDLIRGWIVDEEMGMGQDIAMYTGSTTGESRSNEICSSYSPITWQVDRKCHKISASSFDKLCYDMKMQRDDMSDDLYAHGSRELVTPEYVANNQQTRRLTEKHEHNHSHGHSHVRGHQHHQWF
Test: stopped-flow CO2 hydrase assay
Format: biochemical
Conditions: read-out: RR^1NCS2M (16-36) / KI (nM)^a / TweCAδ

## CCCN(CCC)C(=O)S [compound 1, MTC 1]
  Ki: 807 nM

## O=C(S)N1CCN(c2ccc(F)cc2)CC1 [compound 14, MTC 14]
  Ki: 1500 nM

## O=C(S)N1CCOCC1 [compound 6, MTC 6]
  Ki: > 20000 nM

## O=C(CN1CCN(C(=O)S)CC1)NC1CCCCC1 [compound 9, MTC 9]
  Ki: 129 nM

## O=C(O)[C@H]1CCCN(C(=S)S)C1 [compound 28, DTC 28]
  Ki: 556 nM

## COc1ccc(CCNC(=O)S)cc1OC [compound 12, MTC 12]
  Ki: 67.7 nM

## O=C(CN1CCN(C(=S)S)CC1)NC1CCCCC1 [compound 34, DTC 34]
  Ki: 791 nM

## O=C(S)N1CCN(c2cccc(Cl)c2)CC1 [compound 13, MTC 13]
  Ki: 1510 nM

## O=C(S)N1CCN(c2ccc(C(F)(F)F)cc2)CC1 [compound 15, MTC 15]
  Ki: 1150 nM

## CCOC(=O)CN(C)C(=O)S [compound 5, MTC 5]
  Ki: > 20000 nM

## S=C(S)N[C@@H]1CN2CCC1CC2 [compound 22, DTC 22]
  Ki: 7990 nM

## O=C(O)C1CCCCN1C(=S)S (stereo not shown) [compound 25, DTC 25]
  Ki: > 20000 nM

## CCCCN(CC)C(=O)S [compound 2, MTC 2]
  Ki: 783 nM

## S=C(S)NC1CN2CCC1CC2 (stereo not shown) [compound 20, DTC 20]
  Ki: > 20000 nM

## CCCCN(CCCC)C(=O)S [compound 3, MTC 3]
  Ki: 1140 nM

## O=C(O)[C@@H]1CCCN(C(=S)S)C1 [compound 27, DTC 27]
  Ki: 93.6 nM

## CN1CCN(NC(=O)S)CC1 [compound 7, MTC 7]
  Ki: 487 nM

## CC(C)CN(CC(C)C)C(=O)S [compound 4, MTC 4]
  Ki: > 20000 nM

## S=C(S)NCCc1ccccc1 [compound 35, DTC 35]
  Ki: 897 nM

## NS(=O)(=O)c1ccc(CCNC(=S)S)cc1 [compound 36, DTC 36]
  Ki: 704 nM

## OC1CCCN(C(=S)S)C1 (stereo not shown) [compound 24, DTC 24]
  Ki: > 20000 nM

## CC1COCCN1C(=S)S (stereo not shown) [compound 32, DTC 32]
  Ki: > 20000 nM

## O=C(O)C1CCCN(C(=S)S)C1 (stereo not shown) [compound 26, DTC 26]
  Ki: 8430 nM

## CC(=O)NC1CCCN(C(=S)S)C1 (stereo not shown) [compound 30, DTC 30]
  Ki: 783 nM

## S=C(S)N[C@H]1CN2CCC1CC2 [compound 21, DTC 21]
  Ki: > 20000 nM

## O=C(O)C1COCCN1C(=S)S (stereo not shown) [compound 33, DTC 33]
  Ki: > 20000 nM

## CN(C)CCNC(=S)S [compound 16, DTC 16]
  Ki: 8410 nM

## OCCCCNC(=S)S [compound 18, DTC 18]
  Ki: 7170 nM

## OCCCNC(=S)S [compound 17, DTC 17]
  Ki: 8690 nM

## CN(Cc1ccccc1)C(=O)S [compound 10, MTC 10]
  Ki: > 20000 nM

## S=C(S)N1CCCCC1 [compound 23, DTC 23]
  Ki: > 20000 nM

## O=C(O)C1CCN(C(=S)S)CC1 [compound 29, DTC 29]
  Ki: 8980 nM

## O=C(S)NCCc1ccccc1 [compound 11, MTC 11]
  Ki: 997 nM

## OCCCCCNC(=S)S [compound 19, DTC 19]
  Ki: 8600 nM
